Source: article PMC12749748, “Chemically-induced degradation of the endoplasmic-reticulum stress sensor IRE1 by a VHL-recruiting chimera” (Nature Communications, 2025)

Key:
[1] = system: kinases inhibited by 90% or more; assay: Immunoblot of kinases inhibited by 90% or more, for depletion in AMO1 and KMS27 cells; format: cell-based; details: AMO1 and KMS27 cells, 0.1, 0.3 and 1 µM, 4 h
Method: (§1) Cells were lysed in buffer containing 20 mM HEPES 7.2, 150 mM NaCl, and 1% Triton X-100, supplemented with fresh protease and phosphatase inhibitors (Invitrogen, #78440), cleared by centrifugation at 12,000 × g for 10 min, and analyzed by BCA protein assay (Thermo Fisher Scientific, #23227). Equal protein amounts were loaded, separated by SDS-PAGE, electrotransferred to nitrocellulose membranes using the iBLOT2 system (Invitrogen), and blocked in 5% nonfat milk solution for 60 min. Membranes were probed with primary antibodies at 1:1000 dilution in 5% milk at 4 °C overnight. Signal was detected using appropriate horseradish peroxidase (HRP)-conjugated secondary antibodies at 1:10,000 in 5% milk at room temperature for 1–2 h. Bands were visualized by the Azure 600 western blot imaging system (Azure Biosystems). For in vitro ubiquitination assays performed with Me-Ub, bands were visualized by the Odyssey CLx Imager (LI‑COR) after incubating the blots with the IRDye 800CW (LI-COR) secondary antibodies at 1:10,000 in Intercept Blocking Buffer (LI-COR) at room temperature for 1–2 h. […]
(§2) The kinome selectivity of G6374 was assessed at 1 μM for 1 h versus a panel of 220 human kinases (SelectScreen Kinase Profiling Services, Thermo Fisher Scientific). […]

TAO2 = biological target: T1, TAO2 (Homo sapiens, UniProt Q9UL54); assay: Immunoblot of TAO2 depletion; format: cell-based; details: AMO1 and KMS27 cells, 4 h
T1 construct: endogenous in cells; host or cells: AMO1, KMS27
Method: as §1, §2

MELK = biological target: T2, MELK (Homo sapiens, UniProt Q14680); assay: Immunoblot of MELK depletion in AMO1 cells; format: cell-based; details: additional replicates
T2 construct: endogenous in cells; host or cells: AMO1
Method: as §1, §2

PKD1 = biological target: T3, PKD1 (Homo sapiens, UniProt Q15139); assay: Immunoblot of PKD1 degradation in KMS27 cells; format: cell-based; details: N=3
T3 construct: endogenous in cells; host or cells: KMS27
Method: as §1, §2

VCB (VHL:EloC:EloB) = VCB (VHL:EloC:EloB) (Homo sapiens, UniProt P40337); assay: Surface plasmon resonance, binary interaction with VCB; format: binding; details: SPR, immobilised VCB, 20 °C, 1 to 1 kinetic model
Method: All SPR experiments in this paper were recorded on a Biacore S200 instrument; all protein captures and data collection were at 20 °C.
For binary interactions with G6374: a Xantec SAHC 200 M (streptavidin) chip was inserted into the instrument and primed into running buffer [50 mM HEPES (pH 7.4), 150 mM NaCl, 0.001% Tween 20, 0.2% PEG3350, 0.25 mM TCEP, and 2% DMSO]. Biotinylated human IRE1.KR protein was captured on FC2 to 2-4000 RU, biotinylated VHL in complex with Elongin B (VHL/EloB) was captured on FC4 to 1-2000 RU, data were collected, and all referenced to FC1. Affinity for G6374 was measured using a titration series, injected from low to high with an 8-point, 2-fold dilution dose response with a top concentration of 0.5 μM in both single cycle (single cycle kinetics (SCK)) and multi cycle kinetics (MCK) formats. For MCK experiments, an association time of 45 s and a dissociation time of 200 s with a flow rate of 50 μL/min. For SCK experiments, an association time of 45 s and a dissociation time of 2000 s with a flow rate of 50 μL/min were used. All data were analyzed using Insight software (Cytiva) using a 1 to 1 kinetic binding model.

KMS27 cells = assay: Incucyte cell confluency, KMS27 cells; format: cell-based; details: KMS27 shIRE1 cells, titration
Method: For non-adherent AMO1, KMS27, and OPM2 cells, cells were plated at 5000 cells/well in ultra-low attachment (ULA) 96-well plates (Costar, #7007) and centrifuged at 600 × g for 5 min for spheroid formation. For adherent U2OS and Colo201 cells, 2000 cells/well were seeded in a clear flat-bottom 96-well plate (Costar, #3595). Treatments were added at the time of cell seeding, and cells were cultured in complete RPMI media to a final volume of 200 µL/well. Cultures were maintained at 37 °C throughout the duration of the experiment. Cell confluency was tracked using the Incucyte live-cell imaging system (Sartorius S3). Picture frames were captured every 4 h with a 4× objective, and cell confluency (%) from the total well area as a function of time was calculated using the Incucyte software (version 2023 A Rev2).

Sequence of VCB (VHL:EloC:EloB) (P40337 whole entry): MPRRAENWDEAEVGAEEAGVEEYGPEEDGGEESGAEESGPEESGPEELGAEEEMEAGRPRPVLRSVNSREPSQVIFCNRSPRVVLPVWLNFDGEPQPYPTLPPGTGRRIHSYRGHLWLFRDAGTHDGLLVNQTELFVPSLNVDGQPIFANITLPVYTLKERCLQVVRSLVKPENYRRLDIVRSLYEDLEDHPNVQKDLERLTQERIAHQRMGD
Sequence of VCB (VHL:EloC:EloB) (Q15370 whole entry partner): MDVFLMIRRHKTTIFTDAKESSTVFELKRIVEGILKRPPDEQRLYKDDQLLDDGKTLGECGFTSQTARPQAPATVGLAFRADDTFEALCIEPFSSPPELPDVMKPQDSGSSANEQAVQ
Sequence of VCB (VHL:EloC:EloB) (Q15369 whole entry partner): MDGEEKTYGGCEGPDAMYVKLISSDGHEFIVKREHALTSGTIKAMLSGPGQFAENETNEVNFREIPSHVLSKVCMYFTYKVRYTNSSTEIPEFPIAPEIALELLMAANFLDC
T1 sequence (Q9UL54 whole entry): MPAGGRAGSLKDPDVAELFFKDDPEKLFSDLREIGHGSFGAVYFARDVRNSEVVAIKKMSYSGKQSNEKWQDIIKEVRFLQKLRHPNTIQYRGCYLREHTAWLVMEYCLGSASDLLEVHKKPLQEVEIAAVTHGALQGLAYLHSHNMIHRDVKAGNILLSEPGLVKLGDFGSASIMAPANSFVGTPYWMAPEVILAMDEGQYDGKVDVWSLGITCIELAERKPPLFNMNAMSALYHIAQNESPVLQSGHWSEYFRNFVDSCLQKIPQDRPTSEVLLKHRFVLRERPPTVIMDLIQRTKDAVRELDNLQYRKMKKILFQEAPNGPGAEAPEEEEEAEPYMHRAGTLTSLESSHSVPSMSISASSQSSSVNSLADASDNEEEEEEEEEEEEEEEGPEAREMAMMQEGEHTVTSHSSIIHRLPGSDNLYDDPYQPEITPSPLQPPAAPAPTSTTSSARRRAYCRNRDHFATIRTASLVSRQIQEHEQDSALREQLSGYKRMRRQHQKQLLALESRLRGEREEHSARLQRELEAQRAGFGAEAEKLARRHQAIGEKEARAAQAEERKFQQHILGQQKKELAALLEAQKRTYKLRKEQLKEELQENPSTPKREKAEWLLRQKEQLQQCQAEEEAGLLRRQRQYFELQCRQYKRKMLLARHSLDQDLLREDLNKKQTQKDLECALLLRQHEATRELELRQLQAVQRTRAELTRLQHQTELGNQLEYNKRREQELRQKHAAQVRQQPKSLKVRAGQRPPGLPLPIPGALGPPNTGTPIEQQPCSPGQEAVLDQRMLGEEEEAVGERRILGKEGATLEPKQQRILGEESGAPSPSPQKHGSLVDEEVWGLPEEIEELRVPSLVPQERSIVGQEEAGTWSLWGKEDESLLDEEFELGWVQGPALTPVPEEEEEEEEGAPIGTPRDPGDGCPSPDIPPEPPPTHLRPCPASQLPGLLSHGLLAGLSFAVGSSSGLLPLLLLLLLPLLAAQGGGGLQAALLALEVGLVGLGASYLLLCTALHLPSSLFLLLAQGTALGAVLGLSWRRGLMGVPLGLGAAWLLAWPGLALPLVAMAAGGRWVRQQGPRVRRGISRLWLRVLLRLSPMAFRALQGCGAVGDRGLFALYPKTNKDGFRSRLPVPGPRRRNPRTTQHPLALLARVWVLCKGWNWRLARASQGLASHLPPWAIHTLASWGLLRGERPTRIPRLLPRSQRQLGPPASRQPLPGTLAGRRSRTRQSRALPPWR
T2 sequence (Q14680 whole entry): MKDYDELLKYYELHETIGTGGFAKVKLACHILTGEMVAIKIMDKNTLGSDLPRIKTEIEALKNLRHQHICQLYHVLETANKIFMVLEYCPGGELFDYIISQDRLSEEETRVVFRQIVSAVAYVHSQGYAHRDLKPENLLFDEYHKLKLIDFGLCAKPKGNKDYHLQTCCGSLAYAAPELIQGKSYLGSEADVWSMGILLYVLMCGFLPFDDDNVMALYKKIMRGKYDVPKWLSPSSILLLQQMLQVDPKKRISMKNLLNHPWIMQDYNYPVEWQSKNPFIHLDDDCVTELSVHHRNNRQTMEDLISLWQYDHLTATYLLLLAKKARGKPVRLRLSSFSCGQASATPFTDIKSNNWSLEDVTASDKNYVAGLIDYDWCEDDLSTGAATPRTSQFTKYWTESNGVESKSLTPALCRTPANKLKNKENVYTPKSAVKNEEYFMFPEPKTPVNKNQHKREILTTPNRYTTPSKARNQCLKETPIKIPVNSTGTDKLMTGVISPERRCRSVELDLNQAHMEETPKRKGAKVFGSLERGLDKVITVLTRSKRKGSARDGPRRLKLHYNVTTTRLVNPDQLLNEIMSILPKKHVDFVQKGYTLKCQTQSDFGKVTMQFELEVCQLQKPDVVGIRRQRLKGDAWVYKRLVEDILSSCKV
T3 sequence (Q15139 whole entry): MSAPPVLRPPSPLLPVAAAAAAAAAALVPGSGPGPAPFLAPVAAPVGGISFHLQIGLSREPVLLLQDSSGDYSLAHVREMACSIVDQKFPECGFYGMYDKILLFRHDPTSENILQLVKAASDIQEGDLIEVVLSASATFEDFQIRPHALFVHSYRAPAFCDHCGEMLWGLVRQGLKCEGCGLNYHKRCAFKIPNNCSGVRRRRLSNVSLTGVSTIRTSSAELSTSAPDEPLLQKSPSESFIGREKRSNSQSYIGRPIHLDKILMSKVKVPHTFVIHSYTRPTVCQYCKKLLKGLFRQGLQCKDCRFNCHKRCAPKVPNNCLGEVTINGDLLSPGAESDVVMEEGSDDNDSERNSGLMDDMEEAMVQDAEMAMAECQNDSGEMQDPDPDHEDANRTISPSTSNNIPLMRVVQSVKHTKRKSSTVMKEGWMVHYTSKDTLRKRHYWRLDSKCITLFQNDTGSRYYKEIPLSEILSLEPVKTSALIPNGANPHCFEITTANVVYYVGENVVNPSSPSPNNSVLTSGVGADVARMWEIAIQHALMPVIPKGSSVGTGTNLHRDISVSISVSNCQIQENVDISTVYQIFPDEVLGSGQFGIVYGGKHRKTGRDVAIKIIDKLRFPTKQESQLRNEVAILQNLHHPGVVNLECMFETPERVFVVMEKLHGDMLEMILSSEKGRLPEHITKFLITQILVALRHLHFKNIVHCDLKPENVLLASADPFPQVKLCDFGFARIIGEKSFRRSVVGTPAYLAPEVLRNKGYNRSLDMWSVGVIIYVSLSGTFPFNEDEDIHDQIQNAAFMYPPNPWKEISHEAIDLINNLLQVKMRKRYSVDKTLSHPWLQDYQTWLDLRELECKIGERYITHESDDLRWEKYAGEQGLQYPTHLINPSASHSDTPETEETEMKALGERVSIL

Structure (SMILES): Cc1ncsc1-c1ccc(CNC(=O)[C@@H]2C[C@@H](O)CN2C(=O)[C@@H](NC(=O)CCCCN2CCN([C@H]3CC[C@H](Nc4ncc5ccc(=O)n(C(C)C)c5n4)CC3)CC2)C(C)(C)C)cc1 [G6374]
- depletion of the other eight kinases (JNK3 not detectable) [1]: not appreciably depleted
- depletion of TAO2 (TAO2): did not deplete TAO2
- depletion of MELK (MELK): MELK is not depleted
- degradation of PKD1 (PKD1): no
- Kd (VCB (VHL:EloC:EloB)): 90.2 nM
- kd (VCB (VHL:EloC:EloB)): 0.0477 s⁻¹
- kon (VCB (VHL:EloC:EloB); read-out: ka): 514000 M⁻¹ s⁻¹
- growth inhibition (cell confluency) (KMS27 cells): concentration-dependent growth inhibition
